Laboratory results as given in publication PMC9103699, “Myoglobin Interaction with Lactate Rapidly Releases Oxygen: Studies on Binding Thermodynamics, Spectroscopy, and Oxygen Kinetics” (International Journal of Molecular Sciences, 2022).
Entries after “also recorded” stand apart in the source; their conditions may differ.

Experiments:
equine oxy-Mb [1] = target: T1, equine oxy-Mb (Equus caballus, UniProt P68082); test: ITC binding of lactate to oxy-Mb; details: for Kd: n = 5; for c value: c = nKa[M]t; for ΔS°: from ΔG = ΔH − TΔS
T1 construct: Horse heart muscle myoglobin (Mb), chicken egg white lysozyme, sodium lactate (LAC), and sodium dithionite were purchased from Sigma Aldrich; purchased Sigma Aldrich, St. Louis, MO, USA; host or cells: horse heart muscle
Method: (§1) Preparations enriched in oxygenated and deoxygenated forms of Mb were prepared as described by our earlier publication related to Mb interaction with fatty acids and acylcarnitines. Briefly, 500 µM of Mb was dissolved in 50 mM sodium phosphate buffer of desired test pH. To promote conversion of ferric (Fe^3+) to ferrous (Fe^2+) iron, 3 mM of sodium dithionite was added to the protein solution with gentle mixing. Thereafter, the solution was subjected to a desalting column to remove the reducing agent and to remove the interference, particularly in O2 release kinetics and UV-Vis spectroscopy absorbance peaks. […] Thereafter, purging the protein solution enriched in oxy- and deoxy-Mb with either O2 or N2 gas, respectively, was performed continuously for 10 min. Formation of oxy- and deoxy-Mb were confirmed based on their characteristic peaks using UV-visible spectroscopy. All the experiments were performed in three different pH conditions (7.0, 6.4, and 6.0), mimicking intracellular physiological and acidic pH states that would be typically observed in skeletal muscle cells in “rested” and “active” (hyperlactatemia) conditions.
(§2) Protein-ligand binding experiments were performed using isothermal titration calorimetry (ITC) (Microcal PEAQ-ITC, Malvern, Chester County, PA, USA). Before starting the experiment, both the ligand solution and the protein solution were purged with either O2 or N2 for 10 min. Both the protein and LAC solutions were thermally equilibrated to 25 °C prior to the start of the titration. LAC was loaded in the […] at an initial concentration of 50 µM and titrated against 500 µM of either oxy- or deoxy-Mb solution, maintaining a 1:10 ratio between ligand and protein. To obtain the working c-value between 10 ≤ c ≤ 500 [51], different protein to ligand molar ratios (1:2, 1:5, 1:10, and 1:20) were tested, and based on the c-value, the molar ratio of 1:10 was selected for all ITC binding studies. A total of 19 injections (2 µL each) from the syringe were used to generate the ITC curves within each experiment. During the experimental run, the samples were mixed thoroughly at a constant stirring rate of 750 rpm. Between each injection, a 150 s gap was maintained to achieve a stable baseline. Data obtained from the ITC experiments were best fit to a one set of binding sites model provided by Microcal PEAQ-ITC software (version 1.40). Heats of dilution and heats caused by potential products formed during the course of the ITC experiments were corrected by performing appropriate blank titrations, consisting of (a) either oxy- or deoxy-Mb in the test buffer solution, (b) test buffer in the LAC, and (c) buffer-buffer solution. Lysozyme was used as a negative control protein in the protein-ligand binding experiments. All the binding experiments were performed 5 times (n = 5) and data obtained from statistical analysis are presented here.
(§3) The change in entropy (ΔS) was calculated using the equation: ΔG = ΔH − TΔS(1) where ΔG represents the change in Gibbs free energy, ΔH is the change in enthalpy, and T is the absolute temperature.
(§4) c values were calculated using the equation:c = nKa[M]t(2) where n is the number of binding sites per receptor (macromolecule), [M]t is macromolecule concentration, and Ka is the association constant.

equine deoxy-Mb = target: T2, equine deoxy-Mb (Equus caballus, UniProt P68082); test: ITC binding of lactate to deoxy-Mb; details: for Kd: n = 5; for c value: c = nKa[M]t; for ΔS°: from ΔG = ΔH − TΔS
T2 construct: Horse heart muscle myoglobin (Mb), chicken egg white lysozyme, sodium lactate (LAC), and sodium dithionite were purchased from Sigma Aldrich; purchased Sigma Aldrich, St. Louis, MO, USA; host or cells: horse heart muscle
Method: as §1, §2, §3, §4

[2] = target: T3, chicken egg white lysozyme (Gallus gallus, UniProt P00698); test: ITC binding of LAC to negative control protein lysozyme; details: all tested pH conditions (pH 7.0, 6.4, 6.0)
T3 construct: Horse heart muscle myoglobin (Mb), chicken egg white lysozyme, sodium lactate (LAC), and sodium dithionite were purchased from Sigma Aldrich; purchased Sigma Aldrich, St. Louis, MO, USA; host or cells: chicken egg white
Method: Horse heart muscle myoglobin (Mb), chicken egg white lysozyme, sodium lactate (LAC), and sodium dithionite were purchased from Sigma Aldrich, St. Louis, MO, USA. All other chemicals used in the experiments are of analytical grade and were also procured from Sigma Aldrich, St. Louis, MO, USA.
Protein-ligand binding experiments were performed using isothermal titration calorimetry (ITC) (Microcal PEAQ-ITC, Malvern, Chester County, PA, USA). Before starting the experiment, both the ligand solution and the protein solution were purged with either O2 or N2 for 10 min. Both the protein and LAC solutions were thermally equilibrated to 25 °C prior to the start of the titration. LAC was loaded in the […] at an initial concentration of 50 µM and titrated against 500 µM of either oxy- or deoxy-Mb solution, maintaining a 1:10 ratio between ligand and protein. To obtain the working c-value between 10 ≤ c ≤ 500 [51], different protein to ligand molar ratios (1:2, 1:5, 1:10, and 1:20) were tested, and based on the c-value, the molar ratio of 1:10 was selected for all ITC binding studies. A total of 19 injections (2 µL each) from the syringe were used to generate the ITC curves within each experiment. During the experimental run, the samples were mixed thoroughly at a constant stirring rate of 750 rpm. Between each injection, a 150 s gap was maintained to achieve a stable baseline. […]

equine oxy-Mb [3] = target: T1, equine oxy-Mb; test: O2 release kinetics from oxy-Mb (Oxytherm+ respirometer); format: biochemical
Method: Figure 4 Effect of lactate binding to oxy-Mb and O2 release kinetics. Oxygen kinetics is studied using Oxytherm+ respirometer. All experiments were performed with 50 mM sodium phosphate buffer (pH 7.0, pH 6.4, and pH 6.0) containing 150 µM equine oxy-Mb and varying concentrations of lactate (0.625 mM to 2.5 mM) and oxy-Mb alone as a control. (a) A representative graph showing addition of lactate eliciting a rapid release of O2 from oxy-Mb at pH 6.4. Arrows in the figure indicate the point of addition of oxy-Mb and LAC into buffer during the run. (b) Rate of release of O2 from Mb against lactate concentrations with buffers (pH 7.0, pH 6.4, and pH 6.0). […] All O2 kinetic experiments were repeated 3 times (n = 3). Statistical analysis was performed using one-way ANOVA and the Tukey–Kramer post hoc test. […] Among all the test groups, only statistically […] groups are shown with horizontal lines and two asterisks.
The O2 concentrations (release and binding) during the ligand interactions with Mb in the solution were measured using Oxytherm+ liquid-phase oxygen electrode system (Hansatech Instruments, Norfolk, UK). The Oxytherm+ respirometer is an advanced instrument routinely used for respiration studies.
The measurement of dissolved O2 is calculated at the given temperature and atmospheric pressure according to the following equation [64]: Cs = 14.16 − (0.394 × T) + (0.007714 × T^2) − (0.0000646 × […])(3) where Cs is the saturated O2 concentration in ppm and T is the temperature in °C.
1 ppm is equivalent to 1 µg/mL or (1 µg/32 g/mol) = 0.03125 µmol/mL or 31.25 nmol/mL.
Similarly, deoxy-Mb protein alone (i.e., without LAC) was also tested. All the experiments were carried out at a constant temperature of 25 °C using a Peltier thermostat. The solutions were mixed at 50 rpm using a small magnetic stirring bar placed inside the sample container. Samples were injected into the buffer solution (50 mM sodium phosphate) at varying pH levels (pH 6.0–7.0) using a Hamilton glass syringe (1cc) after achieving equilibrium. Ligand was added to the Mb protein. Appropriate buffer controls voiding either Mb or LAC were used to nullify any artefacts. O2 kinetic experiments were also performed. All the kinetic experiments were performed 3 times (n = 3) and data obtained from statistical analysis are presented here.

oxy-Mb [4] = target: T4, oxy-Mb (Equus caballus, UniProt P68082); test: Time-resolved UV-Vis spectroscopy of LAC-incubated oxy-Mb; set-up: species or system horse; details: all the test pH conditions
T4 construct: Horse heart muscle myoglobin (Mb), chicken egg white lysozyme, sodium lactate (LAC), and sodium dithionite were purchased from Sigma Aldrich; purchased Sigma Aldrich, St. Louis, MO, USA; host or cells: horse heart muscle
Method: (§5) The change in the spectral characteristics of Mb alone and LAC-bound Mb were recorded using UV-Vis spectroscopy (Polarstar Omega, BMG Labtech, ortenberg, Germany). All the sample preparations and the concentrations used were similar to the ITC experiments. After degassing Mb and LAC samples either with O2 or N2 gas in sealed vials, appropriate volumes of the samples were collected using a Hamilton glass syringe (1cc), mixed in a glass cuvette, and sealed immediately; time-resolved spectra were recorded immediately at 25 °C for a period of 75 min. All spectral data were collected at 5 min time intervals. All the spectral experiments were performed 3 times (n = 3).

deoxy-Mb [5] = target: T5, deoxy-Mb (Equus caballus, UniProt P68082); test: Time-resolved UV-Vis spectroscopy of LAC-incubated deoxy-Mb; set-up: species or system horse; details: data not shown
T5 construct: Horse heart muscle myoglobin (Mb), chicken egg white lysozyme, sodium lactate (LAC), and sodium dithionite were purchased from Sigma Aldrich; purchased Sigma Aldrich, St. Louis, MO, USA; host or cells: horse heart muscle
Method: as §5

oxy-Mb [6] = target: oxy-Mb; set-up: method as in PMID 8663546; details: pH 6.5, spectrophotometric, tonometry; cited from earlier work
deoxy-Mb [7] = target: deoxy-Mb; set-up: method as in PMID 8663546; details: pH 6.5, spectrophotometric, tonometry; cited from earlier work
[8] = pH 6.4, 25 °C, listed as lactate

T2 sequence (P68082 whole entry): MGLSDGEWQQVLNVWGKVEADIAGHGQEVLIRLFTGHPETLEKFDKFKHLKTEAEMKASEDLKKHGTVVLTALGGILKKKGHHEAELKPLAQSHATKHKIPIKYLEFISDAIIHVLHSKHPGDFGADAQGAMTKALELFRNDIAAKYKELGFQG
T1 sequence (P68082 whole entry): as above
T3 sequence (P00698 19-147): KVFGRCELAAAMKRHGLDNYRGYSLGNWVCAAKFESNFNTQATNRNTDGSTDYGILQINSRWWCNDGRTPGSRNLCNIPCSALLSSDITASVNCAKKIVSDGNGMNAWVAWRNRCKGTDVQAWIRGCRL
T4 sequence (P68082 whole entry): as the sequence (P68082 whole entry) above
T5 sequence (P68082 whole entry): as above

CC(O)C(=O)[O-].[Na+] (stereo not drawn) [LAC, sodium lactate]
No. of binding sites (equine oxy-Mb [1]; pH 6.0): 1.0 ± 0.06 ^a2
ΔH° (equine oxy-Mb [1]; pH 6.0): 34 ± 3.5 ^c2 kcal mol^−1
Kd (equine oxy-Mb [1]; pH 6.0, 25 °C): 1.9 ± 0.2 µM
ΔG (equine oxy-Mb [1]; pH 6.0, printed as Mb+LAC complex): -7.8 kcal/mol
c value (equine oxy-Mb [1]; pH 6.0): 267.9 ± 30.4 ^d2
ΔS° (equine oxy-Mb [1]; pH 6.0): 0.14 ± 0.01 ^c2 cal mol^−1 K^−1
No. of binding sites (equine oxy-Mb [1]; pH 6.4): 0.8 ± 0.03 ^a1
ΔH° (equine oxy-Mb [1]; pH 6.4): 151.5 ± 18.5 ^b1 kcal mol^−1
Kd (equine oxy-Mb [1]; pH 6.4, 25 °C): ~7 µM
Kd (equine oxy-Mb [1]; [8]): 6.9 ± 1.1 µM
ΔG (equine oxy-Mb [1]; pH 6.4, oxy-Mb+LAC complex): -6.9 kcal/mol
c value (equine oxy-Mb [1]; pH 6.4): 67.5 ± 15.5 ^b1
ΔS° (equine oxy-Mb [1]; pH 6.4): 0.5 ± 0.06 ^b1 cal mol^−1 K^−1
Ka (equine oxy-Mb [1]; pH 7.0): 0.05 µM⁻¹
No. of binding sites (equine oxy-Mb [1]; pH 7.0): 0.9 ± 0.7 ^b*
ΔG (equine oxy-Mb [1]; pH 7.0): -6.2 kcal/mol
ΔH° (equine oxy-Mb [1]; pH 7.0): −53.1 ± 0.3 ^a* kcal mol^−1
Kd (equine oxy-Mb [1]; pH 7.0, 25 °C): 20.7 ± 2.7 µM
c value (equine oxy-Mb [1]; pH 7.0): 22.4 ± 1.4 ^a
ΔS° (equine oxy-Mb [1]; pH 7.0): −0.15 ± 0.01 ^a* cal mol^−1 K^−1
increase of Ka with drop in pH (equine oxy-Mb [1]; pH 7.0 to pH 6.0): ~ 3 fold
No. of binding sites (equine deoxy-Mb; pH 6.0): 0.8 ± 0.02 ^a2
ΔH° (equine deoxy-Mb; pH 6.0): 12.6 ± 0.4 ^d3 kcal mol^−1
Kd (equine deoxy-Mb; pH 6.0, 25 °C): 6.4 ± 0.2 µM
c value (equine deoxy-Mb; pH 6.0): 61.2 ± 0.9 ^b1
ΔS° (equine deoxy-Mb; pH 6.0): 0.1 ± 0.0 ^d3 cal mol^−1 K^−1
No. of binding sites (equine deoxy-Mb; pH 6.4): 0.8 ± 0.03 ^a1
ΔH° (equine deoxy-Mb; pH 6.4): 149.5 ± 13.0 ^b1 kcal mol^−1
Kd (equine deoxy-Mb; pH 6.4, 25 °C): ~14 µM
Kd (equine deoxy-Mb; [8]): 13.7 ± 1.6 µM
c value (equine deoxy-Mb; pH 6.4): 30.4 ± 4.6 ^c1
ΔS° (equine deoxy-Mb; pH 6.4): 0.55 ± 0.03 ^b1 cal mol^−1 K^−1
Ka at pH 6.4 relative to pH 6.0 (equine deoxy-Mb; pH 6.4 vs pH 6.0): ~ 2 fold
binding of LAC (ITC) (equine deoxy-Mb; pH 7.0): No detectable binding
No. of binding sites (equine deoxy-Mb; pH 7.0, NDB: no detectable binding): NDB
binding of LAC (ITC) [2]: no detectable binding; also recorded: did not bound
O2 release compared to oxy-Mb alone (equine oxy-Mb [3]; 0.625 mM LAC, pH 6.0): no significance difference
maximum rate of O2 release (equine oxy-Mb [3]; 2.5 mM LAC, pH 6.4 buffer, 25 °C): 72 nmol/min/g protein
O2 release rate constant (equine oxy-Mb [3]; pH 6.0): 0.04 mM LAC/nM O2 release
O2 release rate constant (equine oxy-Mb [3]; pH 6.4): 0.029 mM LAC/nM O2 release
O2 release rate constant (equine oxy-Mb [3]; pH 7.0): 0.537 mM LAC/nM O2 release
change in UV-Vis spectral data (oxy-Mb [4]): no change in spectral data
change in UV-Vis spectral data (deoxy-Mb [5]): marginal changes in the heme peak absorbance (435 nm)
Kd (oxy-Mb [6]): 26000 µM
Kd (deoxy-Mb [7]): 2500 µM
